Laboratory results: patent US20100249419A1, “UTILIZATION OF NOVEL COMPOUNDS WITH AMYLOID AFFINITY AND METHOD OF PRODUCING THE SAME” (NIHON MEDI-PHYSICS CO., LTD., priority 2007, published 2010)

Assay: Radioactive distribution ratio in each organ
Format: in vivo, SD rat
Protocol: In order to confirm that a compound of the present invention can be distributed in a target organ and has good clearance to the outside of the body, Compound 1 was used to measure a time-course change of radioactive accumulation to each organ in SD rat (8 weeks).
A solution of Compound 1 prepared in Example 3 in diethylether was diluted with a 10 mg/mL ascorbic acid-containing physiological saline solution (Example 10) and adjusted to 8-12 MBq/mL in radioactive concentration. 0.05 mL each of the prepared sample solution was administered under thiopental anesthesia into the tail vein of the above rat. The rats were sacrificed by bleeding from abdominal artery, and each organ shown in Table 11 was removed 5, 30, 60 and 180 minutes after the administration. Each removed organ was subjected to measurement of mass and radioactivity with the same method as in Example 10. Also, radioactivity of the whole body of the rat after removal of the organs (hereinafter referred to as rest of the whole body) was measured. Using these measurement results, radioactive distribution per unit weight of each organ (% ID/g) at the respective time points was calculated in accordance with the following formula (7).
Three animals were used for the experiment at the respective time points.
[formula] • R^T: Radioactivity of target organ (cpm) • R^S: Sum of radioactivity of all the organs (cpm) • R^R: Radioactivity of the rest of the whole body (cpm) • M^T: Mass of target organ (g)

For “2-[4′-(2″-hydroxyethoxy)phenyl]-6-[^123I]iodoimidazo[1,2-a]pyridine [Compound 1]”, the “Radioactive distribution per unit weight of organ, Average” value (shortened to “Radioactive distribution per unit weight”) (Adrenal gland, 5 min. after administration) was 2.471 % ID/g, the “Radioactive distribution per unit weight” value (Adrenal gland, 30 min. after administration) was 0.199 % ID/g and the “Radioactive distribution per unit weight” value (Adrenal gland, 60 min. after administration) was 0.068 % ID/g. For the same substance, the “Radioactive distribution per unit weight” value (Adrenal gland, 180 min. after administration) was 0.052 % ID/g, the “Radioactive distribution per unit weight” value (Blood, 5 min. after administration) was 0.420 % ID/g and the “Radioactive distribution per unit weight” value (Blood, 30 min. after administration) was 0.129 % ID/g. For the same substance, the “Radioactive distribution per unit weight” value (Blood, 60 min. after administration) was 0.101 % ID/g, the “Radioactive distribution per unit weight” value (Blood, 180 min. after administration) was 0.068 % ID/g and the “Radioactive distribution per unit weight” value (Bone, 5 min. after administration) was 0.282 % ID/g. For the same substance, the “Radioactive distribution per unit weight” value (Bone, 30 min. after administration) was 0.066 % ID/g, the “Radioactive distribution per unit weight” value (Bone, 60 min. after administration) was 0.047 % ID/g and the “Radioactive distribution per unit weight” value (Bone, 180 min. after administration) was 0.032 % ID/g. The “Radioactive distribution per unit weight” value (Brain, 5 min. after administration) was 0.755 % ID/g, the “Radioactive distribution per unit weight” value (Brain, 30 min. after administration) was 0.049 % ID/g and the “Radioactive distribution per unit weight” value (Brain, 60 min. after administration) was 0.014 % ID/g. The “Radioactive distribution per unit weight” value (Brain, 180 min. after administration) was 0.005 % ID/g, the “Radioactive distribution per unit weight” value (Heart, 5 min. after administration) was 0.582 % ID/g and the “Radioactive distribution per unit weight” value (Heart, 30 min. after administration) was 0.081 % ID/g. The “Radioactive distribution per unit weight” value (Heart, 60 min. after administration) was 0.049 % ID/g, the “Radioactive distribution per unit weight” value (Heart, 180 min. after administration) was 0.029 % ID/g and the “Radioactive distribution per unit weight” value (Kidney, 5 min. after administration) was 1.212 % ID/g. For the same substance, the “Radioactive distribution per unit weight” value (Kidney, 30 min. after administration) was 0.432 % ID/g, the “Radioactive distribution per unit weight” value (Kidney, 60 min. after administration) was 0.236 % ID/g and the “Radioactive distribution per unit weight” value (Kidney, 180 min. after administration) was 0.070 % ID/g. For the same substance, the “Radioactive distribution per unit weight” value (Large intestine, 5 min. after administration) was 0.139 % ID/g, the “Radioactive distribution per unit weight” value (Large intestine, 30 min. after administration) was 0.054 % ID/g and the “Radioactive distribution per unit weight” value (Large intestine, 60 min. after administration) was 0.069 % ID/g. For the same substance, the “Radioactive distribution per unit weight” value (Large intestine, 180 min. after administration) was 6.876 % ID/g, the “Radioactive distribution per unit weight” value (Liver, 5 min. after administration) was 1.865 % ID/g and the “Radioactive distribution per unit weight” value (Liver, 30 min. after administration) was 0.293 % ID/g. The “Radioactive distribution per unit weight” value (Liver, 60 min. after administration) was 0.113 % ID/g, the “Radioactive distribution per unit weight” value (Liver, 180 min. after administration) was 0.051 % ID/g and the “Radioactive distribution per unit weight” value (Lung, 5 min. after administration) was 0.661 % ID/g. For the same substance, the “Radioactive distribution per unit weight” value (Lung, 30 min. after administration) was 0.117 % ID/g, the “Radioactive distribution per unit weight” value (Lung, 60 min. after administration) was 0.076 % ID/g and the “Radioactive distribution per unit weight” value (Lung, 180 min. after administration) was 0.053 % ID/g. For the same substance, the “Radioactive distribution per unit weight” value (Marrow, 5 min. after administration) was 0.921 % ID/g, the “Radioactive distribution per unit weight” value (Marrow, 30 min. after administration) was 0.087 % ID/g and the “Radioactive distribution per unit weight” value (Marrow, 60 min. after administration) was 0.015 % ID/g. The “Radioactive distribution per unit weight” value (Marrow, 180 min. after administration) was 0.000 % ID/g, the “Radioactive distribution per unit weight” value (Muscle, 5 min. after administration) was 0.372 % ID/g and the “Radioactive distribution per unit weight” value (Muscle, 30 min. after administration) was 0.042 % ID/g. For the same substance, the “Radioactive distribution per unit weight” value (Muscle, 60 min. after administration) was 0.025 % ID/g, the “Radioactive distribution per unit weight” value (Muscle, 180 min. after administration) was 0.015 % ID/g and the “Radioactive distribution per unit weight” value (Pancreas, 5 min. after administration) was 0.778 % ID/g. For the same substance, the “Radioactive distribution per unit weight” value (Pancreas, 30 min. after administration) was 0.097 % ID/g, the “Radioactive distribution per unit weight” value (Pancreas, 60 min. after administration) was 0.051 % ID/g and the “Radioactive distribution per unit weight” value (Pancreas, 180 min. after administration) was 0.033 % ID/g. For the same substance, the “Excretion / clearance to the outside of the body” value (SD rat, tail vein administration) was “biliary-excreted rapidly”, the “Radioactive distribution per unit weight” value (Small intestine, 5 min. after administration) was 1.299 % ID/g and the “Radioactive distribution per unit weight” value (Small intestine, 30 min. after administration) was 6.720 % ID/g. For the same substance, the “Radioactive distribution per unit weight” value (Small intestine, 60 min. after administration) was 7.515 % ID/g, the “Radioactive distribution per unit weight” value (Small intestine, 180 min. after administration) was 0.882 % ID/g and the “Radioactive distribution per unit weight” value (Spleen, 5 min. after administration) was 0.508 % ID/g. The “Radioactive distribution per unit weight” value (Spleen, 30 min. after administration) was 0.072 % ID/g, the “Radioactive distribution per unit weight” value (Spleen, 60 min. after administration) was 0.044 % ID/g and the “Radioactive distribution per unit weight” value (Spleen, 180 min. after administration) was 0.035 % ID/g. For the same substance, the “Radioactive distribution per unit weight” value (Stomach, 5 min. after administration) was 0.492 % ID/g, the “Radioactive distribution per unit weight” value (Stomach, 30 min. after administration) was 1.202 % ID/g and the “Radioactive distribution per unit weight” value (Stomach, 60 min. after administration) was 0.808 % ID/g. The “Radioactive distribution per unit weight” value (Stomach, 180 min. after administration) was 0.982 % ID/g, the “Ratio (% ID/g at 5 minutes after the administration)/(% ID/g at 180 minutes after the administration)” value (bones) was 9 and the “Ratio (% ID/g at 5 minutes after the administration)/(% ID/g at 180 minutes after the administration)” value (brain) was 145. For the same substance, the “Ratio (% ID/g at 5 minutes after the administration)/(% ID/g at 180 minutes after the administration)” value (heart) was 20, the “Ratio (% ID/g at 5 minutes after the administration)/(% ID/g at 180 minutes after the administration)” value (lung) was 13 and the “Ratio (% ID/g at 5 minutes after the administration)/(% ID/g at 180 minutes after the administration)” value (pancreas) was 24.
